Patent publication US8637099B2, “Use of Vitex agnus castus extracts for preparing a medicament” (Max Zeller Sohne AG, priority 2007, dated 2014)

Tested on: Fisher rats
Assay: Tele-Stereo-EEG: field potentials (spectral power) in freely moving rats
Type: in vivo, rat
Settings: 4 mg i.p.

SMILES: OC1(c2ccc(Cl)cc2)CCN(Cc2c[nH]c3ccccc23)CC1 [L-741,626]
- changes in the EEG power spectrum: strong decrease of spectral power mainly within the alpha2 waves
